Measurements reported in patent US20120010176A1, “UTROPHIN PROMOTER ACTIVITY UPREGULATION FOR THE TREATMENT OF MUSCULAR DYSTROPHY” (priority 2008, published 2012).
Counter-ions that a name gives are not always drawn.

Assays:
[1] = system: utrophin promoter; assay: utrophin promoter-luciferase reporter assay, 96-well format; type: cell-based; conditions: for maximal fold induction: read-out: Max. fold change; for dose-dependent activation of the utrophin promoter: range of concentrations, 96-well plate format, FIGS. 1 and 2
Description: (§1) The ability of test compounds to upregulate activity of the utrophin promoter was determined using the muscle cell line C2C12utrn, which contains the utrophin gene promoter linked to the protein-encoding sequence for luciferase. Using these cells, a chemical library was screened for compounds that activate the utrophin promoter. Light production was the readout.
In some cases compounds were tested at a range of concentrations on test cells in a 96-well plate format.

[2] = system: utrophin promoter; assay: utrophin promoter-luciferase reporter screen, 384-well format; type: cell-based; conditions: C2C12utrn cells; for maximal fold induction: 24 h, read-out: Max. fold change
Description: as §1
In the first screening, 384-well plates were used to grow C2C12 […] cells and expose to test compounds. Cells were exposed to test compounds at a single concentration for 24 hours, wherein 19 compounds of 1120 tested produced an increase of at least 20% of the activity of the luciferase reporter.
Subsequently, the 19 compounds were rescreened at 15 different concentrations.

[3] = system: utrophin A mRNA; assay: utrophin A mRNA upregulation in C2C12 muscle cells (TaqMan qPCR); type: cell-based; conditions: either in serum-containing or serum-free media, FIG. 4
Description: In a further experiment, the activity of kawain, equilin and nabumetone were evaluated in C2C12 muscle cells for upregulation of utrophin A mRNA (FIG. 3). C2C12 muscle cells were treated with optimal doses of compounds (based on previous dose-response data) for 24 hours, either in the presence of serum or in the absence of serum (following 24 hours of serum starvation). Trichostatin A and heregulin were used as positive controls for utrophin upregulation in the presence (trichostatin A) or absence (heregulin) of serum. Utrophin A mRNA was measured using a TaqMan qPCR assay and normalised to 18S rRNA. Data are presented as fold-changes in utrophin A mRNA compared to DMS O-only controls (compounds) or media-only controls (trichostatin A and heregulin).
Additional experiments were performed in C2C12 cells. […] C2C12 cells were treated with Prestwick compounds A, J, L and S plus TSA and heregulin (HRG) as positive controls.

[4] = system: mice; assay: in vivo treatment of mice: muscle weights and muscle function
Text: In vivo experiments were perfomed in mice by treating with nabumetone. […] Soleus, gastrocnemius (gastroc), tibialis anterior (TA) and quadriceps (quads) were bigger in treated mice. […] There was no difference in whole body weight between treatment groups.

[5] = 96-well format, C2C12utrn cells, luciferase readout

Row | dose-dependent activation of the utrophin promoter [1] | Compound | maximal fold induction [1, 5] | maximal fold induction ([2]; luciferase readout) | other results
1 | dose-dependent activation | c1ccc2[nH]c(-c3cscn3)nc2c1 [tiabendazole, 2-(1,3-thiazol-4-yl)-1H-benzoimidazole] | 2.1 | 1.86 | 
2 | dose-dependent activation | O=C(/C=C/C=C/c1ccc2c(c1)OCO2)N1CCCCC1 [piperine, 1-[5-(1,3-benzodioxol-5-yl)-1-oxo-2,4-pentadienyl]piperidine] | 2.3 | 1.59 | 
3 | dose-dependent activation | Nc1ccc(/N=N/c2ccccc2)c(N)n1 [phenazopyridine HCl, 3-phenyldiazenylpyridine-2,6-diamine] | 2.6 | 1.62 | 
4 | dose-dependent activation | C#CCN(C)CCCOc1ccc(Cl)cc1Cl [clorgyline HCl, N-[3-(2,4-dichlorophenoxy)propyl]-N-methylprop-2-yn-1-amine] | 1.9 | 1.16 | 
5 | dose-dependent activation | Cc1oncc1C(=O)Nc1ccc(C(F)(F)F)cc1 [leflunomide, 5-methyl-N-[4-(trifluoromethyl)phenyl]isoxazole-4-carboxamide] | 2.9 | 1.38 | 
6 | dose-dependent activation | Nc1nc2ccc(OC(F)(F)F)cc2s1 [riluzole HCl, 6-(trifluoromethoxy)benzothiazol-2-amine] | 2.2 | 1.56 | 
7 |  | heregulin |  |  | levels of endogenous utrophin A mRNA [3]: increased
8 | dose-dependent activation | COc1ccc([C@@H]2CC(=O)c3c(O)cc(O)cc3O2)cc1O [hesperetin, (S)-2,3-dihydro-5,7-dihydroxy-2-(3-hydroxy-4-methoxyphenyl)-4H-1-benzopyran-4-one] | 2.9 | 1.94 | 
9 | dose-dependent activation | O=c1cc(-c2ccc(O)cc2)oc2cc(O)cc(O)c12 [apigenin, 5,7-dihydroxy-2-(4-hydroxyphenyl)-4H-1-benzopyran-4-one] | 3.5 | 1.54 | 
10 | dose-dependent activation | O=c1cc(-c2ccccc2)oc2cc(O)cc(O)c12 [chrysin, 5,7-dihydroxy-2-phenyl-4H-chromen-4-one] | 3.4 | 1.5 | 
11 | dose-dependent activation | COc1ccc2cc(CCC(C)=O)ccc2c1 [nabumetone, 4-(6-methoxy-2-naphthyl)-2-butanone] | 2.5 | 1.56 | whole body weight between treatment groups ([4]; mice, FIG. 5): no difference; muscle weight, EDL ([4]; treated mice, FIG. 5): not significantly bigger; muscle weight, gastrocnemius (gastroc) ([4]; treated mice, FIG. 5, p<0.05): bigger; muscle weight, quadriceps (quads) ([4]; treated mice, FIG. 5, p<0.05): bigger; muscle weight, soleus ([4]; treated mice, FIG. 5, p<0.05): bigger; muscle weight, tibialis anterior (TA) ([4]; treated mice, FIG. 5, p<0.05): bigger; force generating capacity ([4]; treated muscles, FIG. 6): trend towards increased; peak specific twitch force ([4]; treated muscles, FIG. 6, p<0.05): significantly increased; force drop on eccentric contraction ([4]; treated muscles, FIG. 6, trend): decreased
12 |  | CC(/C=C/C(=O)NO)=C\[C@@H](C)C(=O)c1ccc(N(C)C)cc1 [TSA, Trichostatin A] |  |  | levels of endogenous utrophin A mRNA [3]: increased
13 | dose-dependent activation | Oc1ccc(/C=C/c2cc(O)cc(O)c2)cc1 [resveratrol, trans-3,4′,5-trihydroxystilbene] | 2.2 | 1.62 | 

Row | Compound | dose-dependent activation of the utrophin promoter [1] | maximal fold induction [1, 5] | maximal fold induction ([2]; luciferase readout) | other results
14 | C[C@]12CC[C@H]3C(=CCc4cc(O)ccc43)[C@@H]1CCC2=O [equilin, 3-hydroxy-13-methyl-9,11,12,14,15,16-hexahydro-6H-cylcopenta(a)phenanthren-17-one] | dose-dependent activation | 3.4 | 1.6 | 
15 | COC1=CC(=O)O[C@@H](/C=C/c2ccccc2)C1 [kawain, [R-(E)]-5,6-dihydro-4-methoxy-6-(2-phenylethenyl)-2H-pyran-2-one] | dose-dependent activation |  |  | Optimal dose ([1]; 96-well format, C2C12utrn cells): 20 µM; Max. fold change [1, 5]: 2.5; Optimal dose [2]: 10 µM; Max. fold change ([2]; luciferase readout): 1.37
